Laboratory results published in US11220482B2, “Aminopyridinemethanol compounds and their use” (UNIVERSITE AMIENS PICARDIE JULES VERNE, priority 2017, dated 2022).
Read-outs that look alike come from different tables or passages of the source.

Key:
CHO-K1 cells [1] = experiment: In vitro micronucleus assay, short-term exposure; conditions: for MNC-M (mean of micronucleated cell rates): Chinese hamster, 3 h
Procedure: All the assays were conducted in duplicate. The CHO-K1 cells, suspended in McCoy's 5A medium, were transferred into Labteck wells at a concentration of 100,000 cells/mL, and incubated for 24 hours at 37° C. in CO2 (5%).
When the test was performed without metabolic activation, the test substances were added into cell cultures at concentrations previously defined.
When the assay was performed in the presence of metabolic activation, S9 mix metabolizing mixture was added to cell cultures at a concentration of 10%. Then the test substances were added to the cell cultures at concentrations previously defined.
After 3 hours of incubation at 37° C. in CO2 (5%), the culture medium was removed, the cells were rinsed with phosphate buffered saline (PBS), and then returned to culture in McCoy's 5A medium containing […] of cytochalasin B. After a 21-hour incubation period at 37° C., cells were rinsed with phosphate buffered saline (PBS), fixed with methanol and stained with 10% Giemsa for 20 minutes.
(§1) The analysis of results was performed under a microscope at ×1000 magnification. The antiproliferative activity of test substances was estimated by counting the number of binucleated cells relative to the number of mononucleated cells on a total of 500 cells for each dose (250 cells counted per well). The proliferation index (Cytokinesis Blocked Proliferative Index CBPI) was calculated using the following formula:
(§2) The cytostasis index (CI %), i.e. the percentage of cell replication inhibition, was calculated using the following formula: CI %−100−{100×(CBPItest material−1)/(CBPIsolvent control−1)}
(§3) The rates of micronuclei were evaluated for the presence of independent nuclear core entities in 1000 binucleated cells per well, which corresponds to 2000 cells examined by test substance dose. Micronuclei were identified as small nuclei well differentiated from cell nucleus, stained in the same manner and having a diameter less than one third of that of the cell nucleus.
(§4) Micronuclei rates obtained for different doses of test substances were compared to the negative control by a χ2 test. The assay was considered positive if: • A dose-response relationship was obtained between the rate of micronuclei and the doses tested, • At least one of these doses induced a statistically significant increase (P<0.05) in the number of micronucleated cells as compared to the negative control.

CHO-K1 cells [2] = conditions: Chinese hamster, 24 h
Procedure: All the assays were conducted in duplicate. The CHO-K1 cells, suspended in Mac Coy's 5A medium, were transferred into Labteck wells at a concentration of 100,000 cells/mL, and incubated for 24 hours at 37° C. in CO2 (5%).
The test was performed without metabolic activation: the test substances were added into cell cultures at concentrations previously defined. […] After 24 hours of incubation at 37° C. in CO2 (5%), the culture medium was removed, the cells were rinsed with phosphate buffered saline (PBS), and then returned in culture medium containing […] of cytochalasine B. After a 24-hour incubation period at 37° C., cells were rinsed with phosphate buffered saline (PBS), fixed with methanol and stained with 10% Giemsa for 20 minutes.
as §1, §2, §3, §4

Plasmodium falciparum W2 = experiment: Plasmodium falciparum susceptibility assay, first round (SYBR Green I); assay type: cell-based; conditions: W2, first round, 48-h incubation, strain resistant to CQ, sensitive to MQ, read-out: IC50 (nM) Plasmodium falciparum W2 (converted)
Salmonella strains = experiment: Bacterial reverse mutation assay (Ames test), overall conclusion; assay type: cell-based, S. typhimurium; conditions: all tested doses, absence or presence of the metabolizing mixture
Procedure: Five strains of S. typhimurium were used. […] An additional strain has been chosen to detect cross-linking mutagens, hydrazines and oxidative agents: TA102, which have an AT base pair at the primary reversion site. Salmonella tester strains were gifts from Prof. B. N. Ames (Berkeley, Calif., USA). They were stored at −80° C. and regularly checked for genetic markers.
Few crystals of the frozen working strains were taken with a sterile pipette, and seeded in 10 mL of nutrient broth (NB No 2, Oxoid). Strains were grown overnight at 37° C. with shaking in Nutrient Broth No. 2, with ampicillin (25 μg/mL) for TA1535, TA97a, TA98, and TA 100, or ampicillin (25 μg/mL) plus tetracyclin (2 μg/mL) for TA 102. At the end of the incubation period, 0.1 mL of each overnight culture was mixed to 0.1 mL S9 Mix or 0.1 mL phosphate-buffered saline (PBS, pH 7.4) in 5 mL plastic tubes and various volumes of the tested samples were added to the mixtures. Each experiment included triplicate plates of four tested doses. A solvent (DMSO, 10 μL) control was added to determine the spontaneous frequency of revertants (quadruple plates). Five positive controls were also included to ensure the performance of the tester strains and the S9 Mix. […] After hardening, the plates were incubated at 37° C. for 48 hours.
At the end of the incubation period, revertants were counted with a laser colony counter equipped with a bacterial enumeration program (Spiral System Instrument Inc., Bethesda, Md., USA).
The Dunnett test was performed to determine a significant difference between the mean number of induced revertants and the mean number of spontaneous revertants.

[3] = system: Plasmodium falciparum 3D7; experiment: Plasmodium falciparum susceptibility assay, first round (SYBR Green I); assay type: cell-based; conditions: 3D7, first round, 48-h incubation, strain susceptible to CQ, decreased susceptibility to MQ, read-out: IC50 (nM) Plasmodium falciparum 3D7 (converted)
S. typhimurium TA98 = experiment: Bacterial reverse mutation assay (Ames test)
P. falciparum 3D7 = experiment: P. falciparum growth inhibition assay, second round (SYBR Green I, ICEstimator); assay type: cell-based, Plasmodium falciparum; conditions: Plasmodium falciparum, 3D7, 48 h
[4] = human, in vivo; cited from earlier work
[5] = Table 18 second section, "Test without S9 mix", 0.4 μg/plate
[6] = Table 18 second section, "Test without S9 mix", 0.6 μg/plate
[7] = Table 18 second section, "Test without S9 mix", 0.8 μg/plate
[8] = Table 18 second section, "Test without S9 mix", 1 μg/plate

Compound: CCCCCNC[C@@H](O)c1cc(-c2ccc(C(F)(F)F)cc2)nc(C(F)(F)F)c1 [Compound 1a]
- in vitro micronucleus assay result (clastogenic and/or aneugenic activities) (CHO-K1 cells [1]): negative results
- MNC-M (mean of micronucleated cell rates) (CHO-K1 cells [1]; 10 μM): 9.5 ± 0.7 ‰
- MNC-M (mean of micronucleated cell rates) (CHO-K1 cells [1]; 50 μM): 10 ± 1.4 ‰
- MNC-M (mean of micronucleated cell rates) (CHO-K1 cells [1]; 100 μM): 11 ± 1.4 ‰
- BI (binucleated cells) (CHO-K1 cells [2]; 5 μM): 417
- CBPI (Cytokinesis-Blocked Proliferative Index) (CHO-K1 cells [2]; 5 μM): 1.83
- CI % (cytostasis index) (CHO-K1 cells [2]; 5 μM): 8%
- MNC1 (micronucleated cell rate) (CHO-K1 cells [2]; 5 μM): 10 ‰
- MNC2 (micronucleated cell rate) (CHO-K1 cells [2]; 5 μM): 9 ‰
- MNC-M (mean of micronucleated cell rates) (CHO-K1 cells [2]; 5 μM): 9.5 ± 0.7 ‰
- MONO (mononucleated cells) (CHO-K1 cells [2]; 5 μM): 83
- BI (binucleated cells) (CHO-K1 cells [2]; 10 μM): 323
- CBPI (Cytokinesis-Blocked Proliferative Index) (CHO-K1 cells [2]; 10 μM): 1.64
- CI % (cytostasis index) (CHO-K1 cells [2]; 10 μM): 29%
- MNC1 (micronucleated cell rate) (CHO-K1 cells [2]; 10 μM): 9 ‰
- MNC2 (micronucleated cell rate) (CHO-K1 cells [2]; 10 μM): 11 ‰
- MNC-M (mean of micronucleated cell rates) (CHO-K1 cells [2]; 10 μM): 10 ± 1.4 ‰
- MONO (mononucleated cells) (CHO-K1 cells [2]; 10 μM): 177
- BI (binucleated cells) (CHO-K1 cells [2]; 50 μM): 226
- CBPI (Cytokinesis-Blocked Proliferative Index) (CHO-K1 cells [2]; 50 μM): 1.46
- CI % (cytostasis index) (CHO-K1 cells [2]; 50 μM): 52%
- MNC1 (micronucleated cell rate) (CHO-K1 cells [2]; 50 μM): 10 ‰
- MNC2 (micronucleated cell rate) (CHO-K1 cells [2]; 50 μM): 12 ‰
- MNC-M (mean of micronucleated cell rates) (CHO-K1 cells [2]; 50 μM): 11 ± 1.4 ‰
- MONO (mononucleated cells) (CHO-K1 cells [2]; 50 μM): 274
- Number of revertants by plate (Means ± SD), TA100 (S. typhimurium TA100; [5]): 185 ± 8
- Number of revertants by plate (Means ± SD), TA100 (S. typhimurium TA100; [6]): 183 ± 7^NS
- Number of revertants by plate (Means ± SD), TA100 (S. typhimurium TA100; [7]): 172 ± 6^NS
- Number of revertants by plate (Means ± SD), TA100 (S. typhimurium TA100; [8]): 177 ± 4^NS
- Number of revertants by plate (Means ± SD), TA100 (S. typhimurium TA100; without S9 mix, 0.4 μg/plate): 189 ± 8
- Number of revertants by plate (Means ± SD), TA100 (S. typhimurium TA100; without S9 mix, 0.6 μg/plate): 192 ± 9^NS
- Number of revertants by plate (Means ± SD), TA100 (S. typhimurium TA100; without S9 mix, 0.8 μg/plate): 215 ± 13^NS
- Number of revertants by plate (Means ± SD), TA100 (S. typhimurium TA100; without S9 mix, 1 μg/plate): 196 ± 14^NS
- Number of revertants by plate (Means ± SD), TA97a (S. typhimurium TA97a; [5]): 128 ± 8^NS
- Number of revertants by plate (Means ± SD), TA97a (S. typhimurium TA97a; [6]): 133 ± 4^NS
- Number of revertants by plate (Means ± SD), TA97a (S. typhimurium TA97a; [7]): 147 ± 10^NS
- Number of revertants by plate (Means ± SD), TA97a (S. typhimurium TA97a; [8]): 151 ± 6^NS
- Number of revertants by plate (Means ± SD), TA97a (S. typhimurium TA97a; without S9 mix, 0.4 μg/plate): 161 ± 8^NS
- Number of revertants by plate (Means ± SD), TA97a (S. typhimurium TA97a; without S9 mix, 0.6 μg/plate): 155 ± 6^NS
- Number of revertants by plate (Means ± SD), TA97a (S. typhimurium TA97a; without S9 mix, 0.8 μg/plate): 159 ± 8^NS
- Number of revertants by plate (Means ± SD), TA97a (S. typhimurium TA97a; without S9 mix, 1 μg/plate): 154 ± 9^NS
- Number of revertants by plate (Means ± SD), TA102 (S. typhimurium TA102; [5]): 387 ± 8^NS
- Number of revertants by plate (Means ± SD), TA102 (S. typhimurium TA102; [6]): 395 ± 9^NS
- Number of revertants by plate (Means ± SD), TA102 (S. typhimurium TA102; [7]): 379 ± 8^NS
- Number of revertants by plate (Means ± SD), TA102 (S. typhimurium TA102; [8]): 378 ± 5^NS
- Number of revertants by plate (Means ± SD), TA102 (S. typhimurium TA102; without S9 mix, 0.4 μg/plate): 319 ± 12^NS
- Number of revertants by plate (Means ± SD), TA102 (S. typhimurium TA102; without S9 mix, 0.6 μg/plate): 308 ± 10^NS
- Number of revertants by plate (Means ± SD), TA102 (S. typhimurium TA102; without S9 mix, 0.8 μg/plate): 325 ± 13^NS
- Number of revertants by plate (Means ± SD), TA102 (S. typhimurium TA102; without S9 mix, 1 μg/plate): 318 ± 10^NS
- IC50 (Plasmodium falciparum W2): 8.6 ± 1 nM
- mutagenic activity in Salmonella strains (revertant rates) (Salmonella strains): No significant increase in revertant rates
- IC50 [3]: 52.4 ± 1.7 nM
- Number of revertants by plate (Means ± SD), TA1535 (S. typhimurium TA1535; [5]): 29 ± 8^NS
- Number of revertants by plate (Means ± SD), TA1535 (S. typhimurium TA1535; [6]): 29 ± 9^NS
- Number of revertants by plate (Means ± SD), TA1535 (S. typhimurium TA1535; [7]): 32 ± 8^NS
- Number of revertants by plate (Means ± SD), TA1535 (S. typhimurium TA1535; [8]): 27 ± 4^NS
- Number of revertants by plate (Means ± SD), TA1535 (S. typhimurium TA1535; without S9 mix, 0.4 μg/plate): 25 ± 6^NS
- Number of revertants by plate (Means ± SD), TA1535 (S. typhimurium TA1535; without S9 mix, 0.6 μg/plate): 30 ± 5^NS
- Number of revertants by plate (Means ± SD), TA1535 (S. typhimurium TA1535; without S9 mix, 0.8 μg/plate): 31 ± 4^NS
- Number of revertants by plate (Means ± SD), TA1535 (S. typhimurium TA1535; without S9 mix, 1 μg/plate): 26 ± 6^NS
- Number of revertants by plate (Means ± SD), TA98 (S. typhimurium TA98; [5]): 28 ± 3^NS
- Number of revertants by plate (Means ± SD), TA98 (S. typhimurium TA98; [6]): 25 ± 5^NS
- Number of revertants by plate (Means ± SD), TA98 (S. typhimurium TA98; [7]): 31 ± 6^NS
- Number of revertants by plate (Means ± SD), TA98 (S. typhimurium TA98; [8]): 25 ± 3^NS
- Number of revertants by plate (Means ± SD), TA98 (S. typhimurium TA98; without S9 mix, 0.4 μg/plate): 30 ± 4^NS
- Number of revertants by plate (Means ± SD), TA98 (S. typhimurium TA98; without S9 mix, 0.6 μg/plate): 28 ± 8^NS
- Number of revertants by plate (Means ± SD), TA98 (S. typhimurium TA98; without S9 mix, 0.8 μg/plate): 31 ± 6^NS
- Number of revertants by plate (Means ± SD), TA98 (S. typhimurium TA98; without S9 mix, 1 μg/plate): 24 ± 5^NS

Compound: O[C@@H](CNCCCN1CCN(C(c2ccccc2)c2ccccc2)CC1)c1cc(-c2ccc(C(F)(F)F)cc2)nc(C(F)(F)F)c1 [Compound 1n, (R)-2-((3-(4-benzhydrylpiperazin-1-yl)propyl)amino)-1-(2-(trifluoromethyl)-6-(4-(trifluoromethyl)phenyl)pyridin-4-yl)ethanol]
- IC50 (Plasmodium falciparum W2): 86.9 nM
- IC50 (P. falciparum 3D7): < 50 nM

Compound: OC(c1cc(C(F)(F)F)nc2c(C(F)(F)F)cccc12)C1CCCCN1 (centres unmarked) [MQ, Mefloquine, reference compound]
- IC50 (Plasmodium falciparum W2): 31.8 ± 1 nM
- IC50 (P. falciparum 3D7): 32.3 ± 3.2 nM
- IC50 [3]: 79.7 ± 8.5 nM

Compound: CCCCN(CCCC)CC(O)c1cc(Cl)cc2c1-c1ccc(Cl)cc1/C2=C/c1ccc(Cl)cc1 (centres unmarked) [lumefantrine]
- human t1/2 [4]: 72 to 96 h
